The results in this text go back to patent US20250230193A1, “CYCLIC COMPOUND HAVING SELECTIVE KRAS INHIBITORY EFFECT ON HRAS AND NRAS” (CHUGAI SEIYAKU KABUSHIKI KAISHA, priority 2022, published 2025).

Assay [1] addresses GDP-bound NRAS wild-type protein (Homo sapiens, UniProt P01111). The experiment in a line: Binding to NRAS by surface plasmon resonance (SPR), Single Cycle Kinetics. For orientation: SPR reads the build-up and loss of mass on a sensor chip optically.
The target in assay [2] is GDP-bound HRAS wild-type protein (Homo sapiens, UniProt P01112). Kind of assay: Binding to HRAS by surface plasmon resonance (SPR), Single Cycle Kinetics.
Sequence of GDP-bound HRAS wild-type protein (P01112 whole entry): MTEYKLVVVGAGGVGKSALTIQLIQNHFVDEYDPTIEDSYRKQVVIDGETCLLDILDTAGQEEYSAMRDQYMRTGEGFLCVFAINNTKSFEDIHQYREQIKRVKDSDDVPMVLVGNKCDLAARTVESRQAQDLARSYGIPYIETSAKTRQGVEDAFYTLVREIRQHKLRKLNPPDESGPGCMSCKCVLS
The mark [3] stands for this setting: GDP-bound NRAS wild-type vs GDP-bound KRAS wild-type, SPR.
[4] abbreviates: GDP-bound HRAS wild-type vs GDP-bound KRAS wild-type, SPR.

Each structure is given as a SMILES string. *1 amine or outer side, *2 acyl side, *3 side chain or, on linkers, in order; H or OH if unused. Where a SMILES comes first, the peptide text is derived from it. Bridges are numbered along the chain shown (N, C = ends). [ ]: non-standard residue; d: D form. The star is where a group is joined. hPhe(3-Cl-4-CF3) = N[C@@H](CCc1ccc(C(F)(F)F)c(Cl)c1)C(=O)O; NPrPhe(4-CF3) = CCCN[C@@H](Cc1ccc(C(F)(F)F)cc1)C(=O)O; NEtAsp = CCN([C@@H](CC(=O)[*:3])C(=O)[*:2])[*:1]; NMeGly(cPent) = CN[C@H](C(=O)O)C1CCCC1; NMeD = CN[C@@H](CC(=O)O)C(=O)O; NMeL = CN[C@@H](CC(C)C)C(=O)O; Morpholide = C1CN(*)CCO1; Ac5c = NC1(C(=O)O)CCCC1; Aze = O=C(O)[C@@H]1CCN1; NcPrGly = O=C(O)CNC1CC1; Ac4c = NC1(C(=O)O)CCC1; Sar = CNCC(=O)O

Sequence of GDP-bound NRAS wild-type protein (P01111 whole entry): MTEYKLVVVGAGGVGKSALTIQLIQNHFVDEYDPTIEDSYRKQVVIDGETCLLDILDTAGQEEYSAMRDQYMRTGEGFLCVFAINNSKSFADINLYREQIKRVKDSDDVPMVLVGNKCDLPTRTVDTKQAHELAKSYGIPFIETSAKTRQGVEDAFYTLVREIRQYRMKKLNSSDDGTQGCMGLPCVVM

Consider `CCO[C@@H]1C[C@H]2C(=O)NC3(CC(C)(C)C3)C(=O)N(C)[C@@H](C(CC)CC)C(=O)N(C)[C@H](C(=O)N3CCCC3)CC(=O)N(C)[C@@H](COC)C(=O)N[C@@H]([C@@H](C)CC)C(=O)N(C)CC(=O)N(C)[C@H]3C/C=C\CCN(C3=O)[C@@H](Cc3ccc(C(F)(F)F)cc3)C(=O)N(C)CC(=O)N[C@@H](CCc3ccc(Cl)c(Cl)c3)C(=O)N2C1` [PP2174], for which, in assay [1] (SPR, GDP-bound NRAS wild-type vs GDP-bound KRAS wild-type), the “NRAS/KRAS (ratio of KD value with respect to NRAS to KD value with respect to KRAS)” value is on record as “AA (a compound having 20 or more is denoted as AA)”. The “HRAS/KRAS (ratio of KD value with respect to HRAS to KD value with respect to KRAS)” value in assay [2] (SPR, GDP-bound HRAS wild-type vs GDP-bound KRAS wild-type) was “A (a compound having 10 or more and less than 20 is denoted as A)”.

With `CCO[C@@H]1C[C@H]2C(=O)NC3(CC(C)(C)C3)C(=O)N(C)[C@@H](C(CC)CC)C(=O)N(C)[C@H](C(=O)N(C)C)CC(=O)N(C)[C@@H](COC)C(=O)N[C@@H]([C@@H](C)CC)C(=O)N(C3CC3)CC(=O)N(C)[C@H]3C/C=C\CCN(C3=O)[C@@H](CC3CCCCC3)C(=O)N(C)CC(=O)N[C@@H](CCc3cc(F)c(C(F)(F)F)c(F)c3)C(=O)N2C1` [PP2564], the “NRAS/KRAS (ratio of KD value with respect to GDP-bound NRAS wild-type protein to KD value with respect to KRAS)” value in assay [1] (KD ratio NRAS/KRAS, class symbols) is “A (a compound having 10 or more and less than 20 is denoted as A)”. Moreover, the “HRAS/KRAS (ratio of KD value with respect to GDP-bound HRAS wild-type protein to KD value with respect to KRAS)” value in assay [2] (KD ratio HRAS/KRAS, class symbols) was “A (a compound having 10 or more and less than 20 is denoted as A)”.

With `CCCN1C(=O)[C@@H]2CCN2C(=O)CN(C2CC2)C(=O)[C@H]([C@@H](C)CC)NC(=O)[C@H](CC(C)C)N(C)C(=O)C[C@@H](C(=O)N2CCOCC2)N(C)C(=O)[C@H](C2CCCC2)N(C)C(=O)C2(CCCC2)NC(=O)[C@@H]2CCCN2C(=O)[C@H](CCc2ccc(C(F)(F)F)c(Cl)c2)NC(=O)CN(C)C(=O)[C@@H]1Cc1ccc(C(F)(F)F)cc1` [PP0273] ([NMeL]I[NcPrGly][Aze][NPrPhe(4-CF3)][Sar][hPhe(3-Cl-4-CF3)]P[Ac5c][NMeGly(cPent)][NMeD]-Morpholide; lactam N-11), in assay [1] (KD ratio NRAS/KRAS, SPR), the “NRAS/KRAS (ratio of KD for GDP-bound NRAS wild-type to KD for KRAS)” value is “C (A compound having a KD ratio of 0.1 or more and less than 3 is denoted as C)”. In assay [2] (KD ratio HRAS/KRAS, SPR), the “HRAS/KRAS (ratio of KD for GDP-bound HRAS wild-type to KD for KRAS)” value is “B (a compound having 3 or more and less than 10 is denoted as B)”.

With `CCCN1C(=O)CN(C)C(=O)CNC(=O)[C@H]([C@@H](C)CC)NC(=O)[C@H](CC(C)C)N(C)C(=O)C[C@@H](C(=O)N2CCOCC2)N(CC)C(=O)[C@H](C2CCCC2)N(C)C(=O)C2(CCCC2)NC(=O)[C@@H]2CCCN2C(=O)[C@H](CCc2ccc(C(F)(F)F)c(Cl)c2)NC(=O)CN(C)C(=O)[C@@H]1Cc1ccc(C(F)(F)F)cc1` [PP1970] ([NMeL]IG[Sar][NPrPhe(4-CF3)][Sar][hPhe(3-Cl-4-CF3)]P[Ac5c][NMeGly(cPent)][NEtAsp]-Morpholide; lactam N-11), in assay [1] (setting [3]), the “NRAS/KRAS (ratio of KD value for NRAS to KD value for KRAS)” value is “B (a compound having 3 or more and less than 10 is denoted as B)”. Also, in assay [2] (setting [4]), the “HRAS/KRAS (ratio of KD value for HRAS to KD value for KRAS)” value was “B (a compound having 3 or more and less than 10 is denoted as B)”.

Regarding `CCCN1C(=O)CN(C)C(=O)CN(C)C(=O)[C@H]([C@@H](C)CC)NC(=O)[C@H](CC(C)C)N(C)C(=O)C[C@@H](C(=O)N2CCOCC2)NC(=O)[C@H](C2CCCC2)N(C)C(=O)C2(CCC2)NC(=O)[C@@H]2CCCN2C(=O)[C@H](CCc2ccc(C(F)(F)F)c(Cl)c2)NC(=O)CN(C)C(=O)[C@@H]1Cc1ccc(C(F)(F)F)cc1` [PP0320] ([NMeL]I[Sar][Sar][NPrPhe(4-CF3)][Sar][hPhe(3-Cl-4-CF3)]P[Ac4c][NMeGly(cPent)]D-Morpholide; lactam N-11), in assay [1] (KD ratio NRAS/KRAS, SPR), the “NRAS/KRAS (ratio of KD for GDP-bound NRAS wild-type to KD for KRAS)” value is “B (a compound having 3 or more and less than 10 is denoted as B)”. Besides, the “HRAS/KRAS (ratio of KD for GDP-bound HRAS wild-type to KD for KRAS)” value in assay [2] (KD ratio HRAS/KRAS, SPR) was “B (a compound having 3 or more and less than 10 is denoted as B)”.

As to `CCC[C@H]1C(=O)N[C@@H]([C@@H](C)CC)C(=O)N(C)CC(=O)N(C)[C@H]2C/C=C\CCN(C2=O)[C@@H](Cc2ccc(C(F)(F)F)cc2)C(=O)N(C)CC(=O)N[C@@H](CCc2cc(F)c(C(F)(F)F)c(F)c2)C(=O)N2C[C@H](OCC)C[C@H]2C(=O)NC2(CCC2)C(=O)N(C)[C@@H](C2CCCC2)C(=O)N(C)[C@H](C(=O)N(C)CCOC)CC(=O)N1C` [PP1331], the “NRAS/KRAS (ratio of KD value for GDP-bound NRAS wild-type protein to KD value for KRAS)” value in assay [1] (SPR, KD ratio class) is “A (a compound having 10 or more and less than 20 is denoted as A)”. In addition, the “HRAS/KRAS (ratio of KD value for GDP-bound HRAS wild-type protein to KD value for KRAS)” value in assay [2] (SPR, KD ratio class) is “A (a compound having 10 or more and less than 20 is denoted as A)”.

For the compound `CC[C@H](C)[C@@H]1NC(=O)[C@H](CC(C)C)N(C)C(=O)C[C@@H](C(=O)N(C)C)N(C)C(=O)[C@H](C2CCCC2)N(C)C(=O)C2(CC(C)(C)C2)NC(=O)[C@@H]2CCCN2C(=O)[C@H](CCc2cc(F)c(C(F)(F)F)c(F)c2)NC(=O)CN(C)C(=O)[C@H](Cc2ccc(C(F)(F)F)cc2)N2CC/C=C\C[C@@H](C2=O)N(C)C(=O)CN(C)C1=O` [PP1727], in assay [1] (setting [3]), the “NRAS/KRAS (ratio of KD value for NRAS to KD value for KRAS)” value was “A (a compound having 10 or more and less than 20 is denoted as A)”. Also, the “HRAS/KRAS (ratio of KD value for HRAS to KD value for KRAS)” value in assay [2] (setting [4]) was “A (a compound having 10 or more and less than 20 is denoted as A)”.
